Read-outs that look alike come from different tables or passages of the source.
Experiments:
cells = details: Homo sapiens, MCF-10A, read-out: MCF10A I50
H1047R PIK3CA enzyme = H1047R PIK3CA enzyme (Homo sapiens, UniProt P42336, H1047R); assay: ADP-Glo Biochemical PIK3CA Kinase Assay
[1] = ADP-Glo biochemical PIK3CA kinase assay

Sequence of H1047R PIK3CA enzyme (P42336 whole entry H1047R): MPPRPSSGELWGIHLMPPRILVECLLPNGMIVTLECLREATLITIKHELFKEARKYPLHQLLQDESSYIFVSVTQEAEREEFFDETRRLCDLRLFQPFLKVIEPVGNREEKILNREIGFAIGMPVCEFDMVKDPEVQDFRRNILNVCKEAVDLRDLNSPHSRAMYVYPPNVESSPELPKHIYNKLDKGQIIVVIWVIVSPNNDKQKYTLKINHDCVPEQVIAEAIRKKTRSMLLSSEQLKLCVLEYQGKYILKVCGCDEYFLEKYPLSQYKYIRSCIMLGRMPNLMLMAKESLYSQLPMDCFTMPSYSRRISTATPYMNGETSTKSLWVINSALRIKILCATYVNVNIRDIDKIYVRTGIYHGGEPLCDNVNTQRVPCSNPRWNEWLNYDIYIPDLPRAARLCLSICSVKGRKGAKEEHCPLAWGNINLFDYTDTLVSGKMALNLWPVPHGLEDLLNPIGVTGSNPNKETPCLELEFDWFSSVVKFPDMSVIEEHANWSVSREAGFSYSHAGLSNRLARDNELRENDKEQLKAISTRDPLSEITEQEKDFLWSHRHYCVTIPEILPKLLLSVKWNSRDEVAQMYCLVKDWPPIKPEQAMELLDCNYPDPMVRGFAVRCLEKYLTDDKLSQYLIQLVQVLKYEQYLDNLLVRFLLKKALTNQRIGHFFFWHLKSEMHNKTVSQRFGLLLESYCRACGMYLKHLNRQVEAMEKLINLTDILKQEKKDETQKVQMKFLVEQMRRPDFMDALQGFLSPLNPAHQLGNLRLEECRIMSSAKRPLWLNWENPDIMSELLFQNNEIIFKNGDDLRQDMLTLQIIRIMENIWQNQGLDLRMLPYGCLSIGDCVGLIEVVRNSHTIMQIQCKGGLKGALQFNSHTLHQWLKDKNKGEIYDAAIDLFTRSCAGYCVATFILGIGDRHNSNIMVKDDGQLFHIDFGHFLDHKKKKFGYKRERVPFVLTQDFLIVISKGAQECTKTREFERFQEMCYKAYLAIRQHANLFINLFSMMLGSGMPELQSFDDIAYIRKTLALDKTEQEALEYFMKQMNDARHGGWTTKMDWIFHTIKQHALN
Sequence of H1047R PIK3CA enzyme (P27986 whole entry partner): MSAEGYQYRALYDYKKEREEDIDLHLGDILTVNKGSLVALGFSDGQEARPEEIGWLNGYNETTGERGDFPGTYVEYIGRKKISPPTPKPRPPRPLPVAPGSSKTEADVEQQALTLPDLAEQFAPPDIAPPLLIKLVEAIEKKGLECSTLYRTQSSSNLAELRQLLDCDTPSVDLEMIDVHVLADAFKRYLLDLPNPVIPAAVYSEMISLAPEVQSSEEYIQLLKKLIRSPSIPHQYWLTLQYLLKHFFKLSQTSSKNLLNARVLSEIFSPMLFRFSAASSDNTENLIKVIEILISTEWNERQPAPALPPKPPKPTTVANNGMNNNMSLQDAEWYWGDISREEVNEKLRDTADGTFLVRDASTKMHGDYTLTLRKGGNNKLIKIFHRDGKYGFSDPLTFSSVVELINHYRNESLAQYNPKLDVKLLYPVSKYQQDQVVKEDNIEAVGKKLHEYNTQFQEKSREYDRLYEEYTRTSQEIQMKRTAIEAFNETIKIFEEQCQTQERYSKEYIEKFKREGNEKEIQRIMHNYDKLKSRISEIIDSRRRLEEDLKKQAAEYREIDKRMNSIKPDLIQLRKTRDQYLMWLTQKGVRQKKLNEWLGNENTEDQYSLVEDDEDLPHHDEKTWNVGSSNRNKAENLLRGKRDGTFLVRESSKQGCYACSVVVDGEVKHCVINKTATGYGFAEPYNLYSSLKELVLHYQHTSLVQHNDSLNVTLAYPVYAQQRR

Row | SMILES | IC50 (cells) | IC50 (H1047R PIK3CA enzyme; [1]) | IC50 (H1047R PIK3CA enzyme)
1 | CNC(=O)c1cnc(Nc2ccccc2C)c(NC(=O)c2cc(F)c(F)c(C(F)(F)F)c2)c1 [I-677] | 10 to 36 µM | 1000 to 10000 nM | 
2 | CNC(=O)c1cnc(Nc2cccc3ccn(C)c23)c(NC(=O)c2csc3ccccc23)c1 [I-680] | 10 to 36 µM | 1000 to 10000 nM | 
3 | Cc1ccccc1Nc1ncc(C(=O)N[C@H]2C[C@H](C(=O)O)C2)cc1NC(=O)c1csc2ccccc12 [I-685] | 10 to 36 µM | 500 to 1000 nM | 
4 | CC(NC(=O)c1cnc(N)c(NC(=O)c2csc3ccccc23)c1)c1nnc2ccccn12 (centres unmarked) [I-691] | 5 to 10 µM | 100 to 500 nM | 
5 | CNC(=O)[C@H]1C[C@@H](NC(=O)c2cnc(Nc3ccccc3C)c(NC(=O)c3csc4ccccc34)c2)C1 [I-692] | 10 to 36 µM | 100 to 500 nM | 
6 | Cc1ccccc1Nc1ncc(C(=O)NCc2cccnc2)cc1NC(=O)c1cc(F)cc(C(F)(F)F)c1 [I-700] | 10 to 36 µM | 100 to 500 nM | 
7 | CNC(=O)c1cnc(NC2CCOc3ccc(F)cc32)c(NC(=O)c2csc3ccccc23)c1 (centres unmarked) [I-745] | 5 to 10 µM | 100 to 500 nM | 
8 | Cc1ccccc1Nc1ncc(C(=O)NCC2(C#N)CC2)cc1NC(=O)c1cc(F)cc(C(F)(F)F)c1 [I-750] | 5 to 10 µM | 100 to 500 nM | 
9 | CNC(=O)c1cnc(Nc2ccccc2C)c(NC(=O)c2cc(C)nc(C(F)(F)F)c2)c1 [I-765] | 1 to 5 µM | 100 to 500 nM | 
10 | CNC(=O)c1cnc(Nn2nccc2C(F)(F)F)c(NC(=O)c2csc3ccccc23)c1 [I-772] | 1 to 5 µM | ≤ 100 nM | 
11 | CNC(=O)c1cc(F)c(Nc2ccccc2C)c(NC(=O)c2csc3ccccc23)c1 [I-773] | < 1 µM | ≤ 100 nM | 
12 | Cc1ccccc1Nc1c(F)cc(C(=O)NC2CS(=O)(=O)C2)cc1NC(=O)c1csc2ccccc12 [I-774] | 10 to 36 µM | ≤ 100 nM | 
13 | CC(C)(O)c1cnc(Nc2cc(F)ccc2Cl)c(NC(=O)c2nsc3ccccc23)c1 [I-783] | 5 to 10 µM | 100 to 500 nM | 
14 | CNC(=O)c1ccc(Nc2cc(F)ccc2Cl)c(NC(=O)c2cc(F)cc(C(F)(F)F)c2)n1 [I-802] | 1 to 5 µM |  | 100 to 500 nM
15 | CNC(=O)c1cnc(Nc2cc(CO)ccc2Cl)c(NC(=O)c2cc(F)cc(C(F)(F)F)c2)c1 [I-809] | 1 to 5 µM |  | 100 to 500 nM
16 | Cc1ccccc1Nc1nc2ccccc2cc1NC(=O)N1CC(O)c2ccccc21 (centres unmarked) [I-828, 3-hydroxy-N-(2-(o-tolylamino)quinolin-3-yl)indoline-1-carboxamide] | 5 to 10 µM |  | 500 to 1000 nM
